Experimental data: US8217049B2, “Use of type V phosphodiesterase inhibitors in the treatment of exercise induced pulmonary hemorrhage in the equine” (ANOxA Corp., priority 2006, dated 2012)
“And” between values parts separate entries of the source, which are not always exact repeats. Equal entries are not always repeated.

Assays:
[1] = system: exercise induced pulmonary hemorrhage (EIPH); blood in the trachea; assay: Endoscopic EIPH scoring (Pascoe et al. 1985) after maximum exercise, placebo-controlled crossover; format: in vivo; set-up: key: 0: Zero indicates an absence of EIPH; 1 to 4 indicated increasing amounts of blood observed endoscopically in the trachea; conditions: 10 μg/kg of E4021 prior to maximum exercise (>1,000 meters); videoendoscopy about 60 to 90 minutes after exercise; one value per individual horse (Horse 1-8) with previous EIPH; sesquihydrate
Description: (§1) Eight horses with previous evidence of EIPH were enrolled in the study. The candidate horses served as their own control and a predetermined rest period (no maximum exercise events) of one week was adhered to prior to initiation of the protocol. On initiation of the trial the subject horse received, prior to maximum exercise, either a dose of 10 μg/kg of weight of E4021 or a placebo. The eight horses were exercised in training/mock racing conditions at maximum intensity for greater than 1,000 meters followed by endoscopic exam/scoring about 60 to 90 minutes after the exercise event. Following exercise, the horses were examined with videoendoscopy for evidence of blood in the trachea about 60 minutes to 90 minutes after maximum exercise. The endoscope was passed to the level of the bifurcation of the trachea (carina) with images recorded on videotape.
An objective scoring system (Pascoe et al. 1985) was used to indicate the presence or absence of EIPH, as well as its severity, if present. […] Scoring was done by the veterinarian conducting the examination, then later by another individual using the recorded examination. […]
The E4021 was administered from vials containing 50 mg of E4021/30 ml. […] The Pl score was after placebo intervention and the post Tx Score was recorded after administration of E4021. […]

[2] = Untoward effects and systemic hemodynamics in the treated horses; format: in vivo, horse; conditions: eight horses, 10 μg/kg of E4021 prior to maximum exercise
Description: as §1

O.O.O.O=C([O-])C1CCN(c2nc(NCc3ccc4c(c3)OCO4)c3cc(Cl)ccc3n2)CC1.O=C([O-])C1CCN(c2nc(NCc3ccc4c(c3)OCO4)c3cc(Cl)ccc3n2)CC1.[Na+].[Na+] [E4021]
Post Tx (EIPH endoscopic score recorded after administration of E4021) [1]: 0 (3×) and 3 and 1 and 2 | Untoward effects [2]: did not experience any untoward effects | Systemic hemodynamics (e.g. cardiac output, blood pressure) ([2]; versus controls): remained unchanged from controls
